Measured values published in ChEMBL document CHEMBL1201862, “PubChem BioAssay data set” (2004).
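A five-concentration, 48-hour dose response in 96-well plates underlies each endpoint, interpolated linearly between surrounding concentrations. Here, GI50 denotes the concentration required for 50% inhibition of growth.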 Activity calls are given as the source filed them. No stated cut-off is given here; in the data, active = GI50 up to about 1.1 µM and inactive = higher. Where a SMILES comes first, the peptide text is derived from it. The star is where a group is joined. Cbz = O=C(OCc1ccccc1)*

Experiments:
Test in all cases: DTP human tumour cell line panel, 48 h
OVCAR-8 = system: OVCAR-8
IGROV-1 = system: IGROV-1
ACHN = system: ACHN
CCRF-CEM = system: CCRF-CEM
HT-29 = system: HT-29
Hs-578T = system: Hs-578T
PC-3 = system: PC-3
UACC-257 = system: UACC-257
SNB-19 = system: SNB-19
MOLT-4 = system: MOLT-4
SK-MEL-2 = system: SK-MEL-2
RXF 393 = system: RXF 393
Malme-3M = system: Malme-3M
LOX IMVI = system: LOX IMVI
SK-MEL-5 = system: SK-MEL-5
NCI-H522 = system: NCI-H522
SN12C = system: SN12C
UO-31 = system: UO-31
HOP-62 = system: HOP-62
A498 = system: A498

Measured: GI50

CCOC(=O)CCC(NC(=O)CNC(=O)CNC(=O)C(CCC(=O)OCC)NC(=O)C(CCC(=O)OCC)NC(=O)C(CCC(=O)OCC)NC(=O)OCc1ccccc1)C(=O)NC(CCC(=O)OCC)C(=O)NC(CCC(=O)OCC)C(=O)OCC (stereo unspecified) (Cbz-E(OEt)E(OEt)E(OEt)GGE(OEt)E(OEt)E(OEt)-OEt; configuration not given here)
inactive: OVCAR-8 > 75 µM | IGROV-1 > 75 µM | ACHN > 75 µM | CCRF-CEM > 75 µM | HT-29 > 75 µM | Hs-578T > 75 µM | PC-3 > 75 µM | UACC-257 > 75 µM | SNB-19 > 75 µM | MOLT-4 > 75 µM | SK-MEL-2 > 75 µM | RXF 393 > 75 µM | Malme-3M > 75 µM | LOX IMVI > 75 µM | SK-MEL-5 > 75 µM | NCI-H522 > 75 µM | SN12C > 75 µM | UO-31 > 75 µM

O=c1ccn(C2OC(CO)C(O)C2F)c(=O)n1Cc1ccccc1 (stereo unspecified)
inactive: OVCAR-8 > 100 µM | HOP-62 > 100 µM | IGROV-1 > 100 µM | ACHN > 100 µM | CCRF-CEM > 100 µM | HT-29 > 100 µM | Hs-578T > 100 µM | PC-3 > 100 µM | UACC-257 > 100 µM | SNB-19 > 100 µM | MOLT-4 > 100 µM | RXF 393 > 100 µM | Malme-3M > 100 µM | LOX IMVI > 100 µM | SK-MEL-5 > 100 µM | NCI-H522 > 100 µM | SN12C > 100 µM | UO-31 > 100 µM

Nc1nc(NNc2cccc(F)c2)cc(=O)[nH]1
inactive: A498 > 100 µM | OVCAR-8 42.4 µM | HOP-62 25 µM | IGROV-1 61.9 µM | ACHN 43.6 µM | CCRF-CEM 43.5 µM | HT-29 22.5 µM | Hs-578T 36.8 µM | PC-3 25.2 µM | UACC-257 > 100 µM | SNB-19 65.2 µM | MOLT-4 27.7 µM | Malme-3M 74.8 µM | LOX IMVI 21.1 µM | SK-MEL-5 42.7 µM | SN12C 65.8 µM | UO-31 89.1 µM

CC(C)(C)c1cc(/C=C/C(=O)CC(=O)/C=C/c2cc(C(C)(C)C)c(O)c(C(C)(C)C)c2)cc(C(C)(C)C)c1O
inactive: OVCAR-8 > 50 µM | HOP-62 > 50 µM | IGROV-1 > 50 µM | ACHN > 50 µM | CCRF-CEM > 50 µM | HT-29 > 50 µM | Hs-578T > 50 µM | PC-3 > 50 µM | UACC-257 > 50 µM | SNB-19 > 50 µM | SK-MEL-2 > 50 µM | RXF 393 > 50 µM | LOX IMVI > 50 µM | SK-MEL-5 > 50 µM | NCI-H522 > 50 µM | SN12C > 50 µM | UO-31 > 50 µM

Cn1[nH]nn/c1=N\N=C\c1ccccc1
inactive: OVCAR-8 > 10 µM | HOP-62 > 10 µM | IGROV-1 > 10 µM | ACHN > 10 µM | CCRF-CEM > 10 µM | HT-29 > 10 µM | Hs-578T > 10 µM | PC-3 > 10 µM | UACC-257 > 10 µM | SNB-19 > 10 µM | MOLT-4 > 10 µM | SK-MEL-2 > 10 µM | RXF 393 > 10 µM | LOX IMVI > 10 µM | SK-MEL-5 > 10 µM | NCI-H522 > 10 µM | SN12C > 10 µM | UO-31 > 10 µM

N=C(N)c1ccc(/N=N\c2c(O)ccc3cc4c(/N=N\c5ccc(C(=N)N)cc5)c(O)ccc4cc23)cc1
inactive: OVCAR-8 80.4 µM | HOP-62 45.4 µM | IGROV-1 51.5 µM | ACHN > 100 µM | CCRF-CEM 37.2 µM | HT-29 75.9 µM | Hs-578T > 100 µM | PC-3 > 100 µM | UACC-257 > 100 µM | SNB-19 > 100 µM | MOLT-4 37.8 µM | SK-MEL-2 > 100 µM | RXF 393 > 100 µM | Malme-3M > 100 µM | SK-MEL-5 51.6 µM | NCI-H522 > 100 µM | SN12C > 100 µM | UO-31 53.1 µM
